Laboratory results taken from ChEMBL document CHEMBL5154800, “Identification of N, C-capped di- and tripeptides as selective immunoproteasome inhibitors” (Eur J Med Chem, 2022).

How the values were obtained:
[1] = Selectivity ratio of IC50 for inhibition of 20S proteasome beta 5c subunit (unknown origin) to IC50 for inhibition of 20S proteasome subunit beta-5i
[2] = target: T1, Proteasome subunit beta type-8 (Homo sapiens, UniProt P28062); experiment: Inhibition of 20S proteasome subunit beta-5i (unknown origin) using Ac-ANW-AMC as substrate and measured after 30 mins
T1 sequence (P28062 whole entry): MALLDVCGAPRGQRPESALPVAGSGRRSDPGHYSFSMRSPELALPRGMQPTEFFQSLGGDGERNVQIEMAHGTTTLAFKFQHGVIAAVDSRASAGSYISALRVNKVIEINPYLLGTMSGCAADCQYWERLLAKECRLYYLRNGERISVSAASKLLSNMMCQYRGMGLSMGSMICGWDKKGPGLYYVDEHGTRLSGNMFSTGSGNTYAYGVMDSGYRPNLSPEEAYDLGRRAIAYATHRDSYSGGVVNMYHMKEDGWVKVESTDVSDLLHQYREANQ

[3] = target: T2, Proteasome Macropain subunit MB1 (Homo sapiens, UniProt P28074); experiment: Inhibition of 20S proteasome subunit beta-5c (unknown origin) using Ac-WLA-AMC as substrate and measured after 30 mins
T2 sequence (P28074 whole entry): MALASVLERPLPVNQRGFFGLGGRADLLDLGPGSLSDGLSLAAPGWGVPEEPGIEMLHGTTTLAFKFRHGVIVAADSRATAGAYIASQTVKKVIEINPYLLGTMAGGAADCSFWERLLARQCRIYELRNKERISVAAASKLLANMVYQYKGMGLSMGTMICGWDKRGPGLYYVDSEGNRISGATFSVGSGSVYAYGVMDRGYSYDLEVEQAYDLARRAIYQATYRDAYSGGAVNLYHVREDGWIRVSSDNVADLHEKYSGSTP

DOHH-2 = experiment: Antiproliferative activity against human DOHH-2 cells assessed as growth inhibition at 0.2 uM measured after 72 hrs by MTT assay; type: functional; conditions: read-out: GI
MCF7 = experiment: Antiproliferative activity against human MCF7 cells assessed as growth inhibition at 0.2 uM measured after 72 hrs by MTT assay; type: functional; conditions: read-out: GI
Pfeiffer = experiment: Antiproliferative activity against human Pfeiffer cells assessed as growth inhibition at 0.2 uM measured after 72 hrs by MTT assay; type: functional; conditions: read-out: GI
HT-29 = experiment: Antiproliferative activity against human HT-29 cells assessed as growth inhibition at 0.2 uM measured after 72 hrs by MTT assay; type: functional; conditions: read-out: GI
HCT-116 = experiment: Antiproliferative activity against human HCT-116 cells assessed as growth inhibition at 0.2 uM measured after 72 hrs by MTT assay; type: functional; conditions: read-out: GI

Row | SMILES | Ratio IC50 [1] | IC50 [2] | IC50 [3] | inhibition of growth at 0.2 µM (DOHH-2) | inhibition of growth at 0.2 µM (MCF7) | inhibition of growth at 0.2 µM (Pfeiffer) | inhibition of growth at 0.2 µM (HT-29) | inhibition of growth at 0.2 µM (HCT-116)
1 | Cn1ncc2cc(CNC(=O)[C@H](Cc3ccccc3)NC(=O)[C@H](CCC(=O)NC(C)(C)C)NC(=O)CCNC(=O)CCl)ccc21 | 3 | – | – | – | – | – | – | –
2 | CC(C)(C)NC(=O)CC[C@H](NC(=O)CCNC(=O)CCl)C(=O)N[C@@H](Cc1ccccc1)C(=O)NCc1ccc(S(C)(=O)=O)cc1 | – | > 5000 nM | – | – | – | – | – | –
3 | Cc1ccc(CNC(=O)[C@H](Cc2ccccc2)NC(=O)[C@H](CCC(=O)N2CCCC2)NC(=O)[C@H](CNC(=O)CCl)NC(=O)CN2CCOCC2)cc1 | 10 | – | 3570 nM | – | – | – | – | –
4 | CC(C)(C)NC(=O)CC[C@H](NC(=O)CCNC(=O)CCl)C(=O)N[C@@H](Cc1ccccc1)C(=O)NCc1ccc(C#N)cc1C(F)(F)F | – | > 5000 nM | – | – | – | – | – | –
5 | Cc1ccc(/C=C(\C#N)C(=O)NCCC(=O)N[C@@H](CCC(=O)NC(C)(C)C)C(=O)N[C@@H](Cc2ccccc2)C(=O)NCc2ccc(C)cc2)cc1 | 9 | – | – | < 20% | < 20% | 29% | < 20% | 41%
6 | Cc1ccc(CNC(=O)[C@H](Cc2ccccc2)NC(=O)[C@H](CCC(=O)NC(C)(C)C)NC(=O)CCNC(=O)/C(C#N)=C/C(C)C)cc1 | 4 | – | – | 27% | < 20% | 27% | < 20% | 30%
7 | Cc1ccc(CNC(=O)CNC(=O)[C@H](CCC(=O)NC(C)(C)C)NC(=O)CCNC(=O)CCl)cc1 | 6 | 626 nM | 3790 nM | – | – | – | – | –
8 | CC(=O)N[C@@H](CNC(=O)CCl)C(=O)N[C@@H](CCC(=O)NC(C)(C)C)C(=O)N[C@@H](Cc1ccccc1)C(=O)NCc1ccc(C)cc1 | 3 | – | – | – | – | – | – | –
9 | CC(C)(C)NC(=O)CC[C@H](NC(=O)CCNC(=O)CCl)C(=O)N[C@@H](Cc1ccccc1)C(=O)NCc1ccc2ccccc2c1 | 15 | – | – | < 20% | < 20% | 25% | < 20% | 39%
10 | CC(C)c1ccc(CNC(=O)[C@H](Cc2ccccc2)NC(=O)[C@H](CCC(=O)NC(C)(C)C)NC(=O)CCNC(=O)CCl)cc1 | 12 | – | – | – | – | – | – | –
11 | CC(C)(C)NC(=O)CC[C@H](NC(=O)CCNC(=O)CC#N)C(=O)N[C@@H](Cc1ccc2ccccc2c1)C(=O)NCc1cccc2ccccc12 | 52 | – | – | – | – | – | – | –
12 | Cc1ccc(CNC(=O)[C@H](Cc2ccccc2)NC(=O)[C@H](CCC(=O)NC(C)(C)C)NC(=O)CCNC(=O)/C(C#N)=C/C2CC2)cc1 | 7 | 9.64 nM | – | 25% | 22% | < 20% | < 20% | 26%
13 | Cc1ccc(CNC(=O)[C@H](Cc2ccccc2)NC(=O)[C@H](CCC(=O)NC(C)(C)C)NC(=O)[C@H](CNC(=O)CCl)NC(=O)C(=O)c2c[nH]c3ccccc23)cc1 | 2 | – | – | < 20% | < 20% | 32% | < 20% | 44%
14 | Cc1ccc(CNC(=O)[C@H](Cc2cccc(F)c2)NC(=O)[C@H](CCC(=O)NC(C)(C)C)NC(=O)CCNC(=O)CCl)cc1 | 20 | 6.51 nM | – | < 20% | < 20% | 29% | < 20% | 35%
15 | CC(C)(C)NC(=O)CC[C@H](NC(=O)CCNC(=O)CCl)C(=O)N[C@@H](Cc1ccccc1)C(=O)NCc1ccc(N2CCOCC2)cc1 | 5 | – | – | – | – | – | – | –
16 | Cc1ccc(CNC(=O)CNC(=O)[C@H](CCC(=O)NC(C)(C)C)NC(=O)[C@H](CNC(=O)CCl)NC(=O)CN2CCOCC2)cc1 | 41 | 94.4 nM | 3850 nM | – | – | – | – | –
17 | Cc1ccc(CNC(=O)[C@H](Cc2ccccc2)NC(=O)[C@H](CCC(=O)NC(C)(C)C)NC(=O)[C@H](CNC(=O)CCl)NC(=O)CN2CCOCC2)cc1 | 14 | – | – | < 20% | < 20% | 32% | < 20% | 29%
